Source: patent US12161722B2, “Bifunctional heterocyclic compound having BTK degradation function via ubiquitin proteasome pathway, and use thereof” (KOREA RESEARCH INSTITUTE OF CHEMICAL TECHNOLOGY, priority 2021, dated 2024)

Target: T1, WT BTK protein (Homo sapiens, UniProt Q06187)
T1 construct: measured for intracellular BTK protein levels by Western blotting; endogenous in cells; host or cells: TMD-8 or RAMOS cells
Assay: BTK protein degradation assay (Western blotting), WT BTK
Assay type: cell-based
Conditions: concentration range accounting for 50% degradation of WT BTK protein, TMD-8 or RAMOS cells, 24 hours
Outline: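 TMD-8 cells (1×10^6 cells/mL) treated 24 h with compound serial dilutions, then lysed in RIPA. Equal protein loads analysed by Western blot for BTK with GAPDH/β-actin as loading controls; activity binned by concentration giving 50% WT BTK degradation.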

T1 sequence (Q06187 whole entry): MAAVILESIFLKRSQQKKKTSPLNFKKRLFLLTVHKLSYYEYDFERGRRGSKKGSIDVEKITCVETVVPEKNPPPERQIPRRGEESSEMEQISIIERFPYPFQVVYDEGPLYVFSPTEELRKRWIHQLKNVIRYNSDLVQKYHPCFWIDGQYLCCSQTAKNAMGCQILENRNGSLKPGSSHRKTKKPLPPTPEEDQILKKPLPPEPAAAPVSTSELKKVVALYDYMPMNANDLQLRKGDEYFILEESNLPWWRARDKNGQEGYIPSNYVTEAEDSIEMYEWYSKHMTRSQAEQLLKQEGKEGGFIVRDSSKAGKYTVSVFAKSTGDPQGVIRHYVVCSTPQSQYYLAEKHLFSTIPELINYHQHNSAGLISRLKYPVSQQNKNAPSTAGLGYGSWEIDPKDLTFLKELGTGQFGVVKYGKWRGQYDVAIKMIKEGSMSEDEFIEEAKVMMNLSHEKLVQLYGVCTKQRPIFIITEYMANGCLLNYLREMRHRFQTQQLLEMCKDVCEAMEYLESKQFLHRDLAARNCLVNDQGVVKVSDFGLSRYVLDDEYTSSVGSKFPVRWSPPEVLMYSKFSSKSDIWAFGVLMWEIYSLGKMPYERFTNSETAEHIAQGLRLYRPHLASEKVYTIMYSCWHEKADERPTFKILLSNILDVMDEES

SMILES | DC50
Cc1cccc(C)c1Nc1nn(C)c2nc(Nc3ccc4c(c3)CN(CC3(O)CCN(c5ccc6c(n5)CN(C5CCC(=O)NC5=O)C6=O)CC3)CC4)ncc12 (stereo not shown) [Compound 133, 3-(2-(4-((7-((3-((2,6-Dimethylphenyl)amino)-1-methyl-1H-pyrazolo[3,4-d]pyrimidin-6-yl)amino)-3,4-dihydroisoquinolin-2 (1H)-yl)methyl)-4-hydroxypiperidin-1-yl)-5-oxo-5,7-dihydro-6H-pyrrolo[3,4-b]pyridin-6-yl)piperidin-2,6-one] | 0.1 to 10 nM
Cc1cccc(C)c1Nc1nn(C)c2nc(Nc3ccc(N4CCN(CC5CCN(c6ccc7c(c6)C(=O)N(C6CCC(=O)NC6=O)C7=O)CC5)CC4)nc3)ncc12 (stereo not shown) [Compound 134, 5-(4-((4-(5-((3-((2,6-Dimethylphenyl)amino)-1-methyl-1H-pyrazolo[3,4-d]pyrimidin-6-yl)amino)pyridin-2-yl)piperazin-1-yl)methyl)piperidin-1-yl)-2-(2,6-dioxopiperidin-3-yl)isoindoline-1,3-dione] | 0.1 to 10 nM
Cc1cccc(C)c1Nc1nn(C)c2nc(Nc3ccc(N4CCC(CN5CCN(c6ccc7c(c6)C(=O)N(C6CCC(=O)NC6=O)C7=O)CC5)CC4)nc3)ncc12 (stereo not shown) [Compound 135, 5-(4-((1-(5-((3-((2,6-Dimethylphenyl)amino)-1-methyl-1H-pyrazolo[3,4-d]pyrimidin-6-yl)amino)pyridin-2-yl)piperidin-4-yl)methyl)piperazin-1-yl)-2-(2,6-dioxopiperidin-3-yl)isoindoline-1,3-dione] | 0.1 to 10 nM
Cc1cccc(C)c1Nc1nn(C)c2nc(Nc3cccc(N4CCN(CC5CCN(c6ccc7c(c6)C(=O)N(C6CCC(=O)NC6=O)C7=O)CC5)CC4)c3)ncc12 (stereo not shown) [Compound 136, 5-(4-((4-(3-((3-((2,6-dimethylphenyl)amino)-1-methyl-1H-pyrazolo[3,4-d]pyrimidin-6-yl)amino)phenyl)piperazin-1-yl)methyl)piperidin-1-yl)-2-(2,6-dioxopiperidin-3-yl)isoindoline-1,3-dione] | 0.1 to 10 nM
Cc1cccc(C)c1Nc1nn(C)c2nc(Nc3ccc4c(c3)CN(CC3CCN(c5ccc(C(=O)NC6CCC(=O)NC6=O)nc5)CC3)CC4)ncc12 (stereo not shown) [Compound 137, 5-(4-((7-((3-((2,6-Dimethylphenyl)amino)-1-methyl-1H-pyrazolo[3,4-d]pyrimidin-6-yl)amino)-3,4-dihydroisoquinolin-2 (1H)-yl)methyl)piperidin-1-yl)-N-(2,6-dioxopiperidin-3-yl)picolinamide] | 0.1 to 10 nM
Cc1cccc(C)c1Nc1nn(C)c2nc(Nc3ccc4c(c3)CN(C3CCN(CC5CN(c6ccc7c(c6)C(=O)N(C6CCC(=O)NC6=O)C7=O)C5)CC3)CC4)ncc12 (stereo not shown) [Compound 138, 5-(3-((4-(7-((3-((2,6-Dimethylphenyl)amino)-1-methyl-1H-pyrazolo[3,4-d]pyrimidin-6-yl)amino)-3,4-dihydroisoquinolin-2 (1H)-yl)piperidin-1-yl)methyl)azetidin-1-yl)-2-(2,6-dioxopiperidin-3-yl)isoindoline-1,3-dione] | 0.1 to 10 nM
Cc1cccc(C)c1Nc1nn(C)c2nc(Nc3ccc4c(c3)CN(C3CCN(CC5CCN(c6ccc7c(c6)C(=O)N(C6CCC(=O)NC6=O)C7=O)CC5)CC3)CC4)ncc12 (stereo not shown) [Compound 139, 5-(4-((4-(7-((3-((2,6-Dimethylphenyl)amino)-1-methyl-1H-pyrazolo[3,4-d]pyrimidin-6-yl)amino)-3,4-dihydroisoquinolin-2 (1H)-yl)piperidin-1-yl)methyl)piperidin-1-yl)-2-(2,6-dioxopiperidin-3-yl)isoindoline-1,3-dione] | 0.1 to 10 nM
Cc1cccc(C)c1Nc1nn(C)c2nc(Nc3ccc4c(c3)CN(C3CCN(C[C@H]5CCCN(c6ccc7c(c6)C(=O)N(C6CCC(=O)NC6=O)C7=O)C5)CC3)CC4)ncc12 (stereo partly drawn) [Compound 140, 5-((R)-3-((4-(7-((3-((2,6-dimethylphenyl)amino)-1-methyl-1H-pyrazolo[3,4-d]pyrimidin-6-yl)amino)-3,4-dihydroisoquinolin-2 (1H)-yl)piperidin-1-yl)methyl)piperidin-1-yl)-2-(2,6-dioxopiperidin-3-yl)isoindoline-1,3-dione] | 0.1 to 10 nM
Cc1cccc(C)c1Nc1nn(C)c2nc(Nc3ccc4c(c3)CN(C3CCN(C[C@@H]5CCCN(c6ccc7c(c6)C(=O)N(C6CCC(=O)NC6=O)C7=O)C5)CC3)CC4)ncc12 (stereo partly drawn) [Compound 141, 5-((S)-3-((4-(7-((3-((2,6-dimethylphenyl)amino)-1-methyl-1H-pyrazolo[3,4-d]pyrimidin-6-yl)amino)-3,4-dihydroisoquinolin-2 (1H)-yl)piperidin-1-yl)methyl)piperidin-1-yl)-2-(2,6-dioxopiperidin-3-yl)isoindoline-1,3-dione] | 0.1 to 10 nM
Cc1cccc(C)c1Nc1nn(C)c2nc(Nc3ccc4c(c3)CN(C3CCN(C[C@H]5CCN(c6ccc7c(c6)C(=O)N(C6CCC(=O)NC6=O)C7=O)C5)CC3)CC4)ncc12 (stereo partly drawn) [Compound 142, 5-((R)-3-((4-(7-((3-((2,6-dimethylphenyl)amino)-1-methyl-1H-pyrazolo[3,4-d]pyrimidin-6-yl)amino)-3,4-dihydroisoquinolin-2 (1H)-yl)piperidin-1-yl)methyl)pyrrolidin-1-yl)-2-(2,6-dioxopiperidin-3-yl)isoindoline-1,3-dione] | 0.1 to 10 nM
Cc1cccc(C)c1Nc1nn(C)c2nc(Nc3ccc4c(c3)CN(C3CCN(C[C@@H]5CCN(c6ccc7c(c6)C(=O)N(C6CCC(=O)NC6=O)C7=O)C5)CC3)CC4)ncc12 (stereo partly drawn) [Compound 143, 5-((S)-3-((4-(7-((3-((2,6-dimethylphenyl)amino)-1-methyl-1H-pyrazolo[3,4-d]pyrimidin-6-yl)amino)-3,4-dihydroisoquinolin-2 (1H)-yl)piperidin-1-yl)methyl)pyrrolidin-1-yl)-2-(2,6-dioxopiperidin-3-yl)isoindoline-1,3-dione] | 0.1 to 10 nM
Cc1cccc(C)c1Nc1nn(C)c2nc(Nc3ccc4c(c3)CN(C[C@@H]3CCN(c5ccc6c(c5)C(=O)N(C5CCC(=O)NC5=O)C6=O)C3)CC4)ncc12 (stereo partly drawn) [Compound 145, 5-((S)-3-((7-((3-((2,6-Dimethylphenyl)amino)-1-methyl-1H-pyrazolo[3,4-d]pyrimidin-6-yl)amino)-3,4-dihydroisoquinolin-2 (1H)-yl)methyl)pyrrolidin-1-yl)-2-(2,6-dioxopiperidin-3-yl)isoindoline-1,3-dione] | 0.1 to 10 nM
Cc1cccc(C)c1Nc1nn(C)c2nc(Nc3ccc4c(c3)CN(CCC3CCN(c5ccc6c(c5)C(=O)N(C5CCC(=O)NC5=O)C6=O)CC3)CC4)ncc12 (stereo not shown) [Compound 146, 5-(4-(2-(7-((3-((2,6-Dimethylphenyl)amino)-1-methyl-1H-pyrazolo[3,4-d]pyrimidin-6-yl)amino)-3,4-dihydroisoquinolin-2 (1H)-yl)ethyl)piperidin-1-yl)-2-(2,6-dioxopiperidin-3-yl)isoindoline-1,3-dione] | 0.1 to 10 nM
Cc1cccc(C)c1Nc1nn(C)c2nc(Nc3ccc4c(c3)CN(CC3CCN(C5CN(c6ccc7c(c6)C(=O)N(C6CCC(=O)NC6=O)C7=O)C5)CC3)CC4)ncc12 (stereo not shown) [Compound 147, 5-(3-(4-((7-((3-((2,6-Dimethylphenyl)amino)-1-methyl-1H-pyrazolo[3,4-d]pyrimidin-6-yl)amino)-3,4-dihydroisoquinolin-2 (1H)-yl)methyl)piperidin-1-yl)azetidin-1-yl)-2-(2,6-dioxopiperidin-3-yl)isoindoline-1,3-dione] | 0.1 to 10 nM
Cc1cccc(C)c1Nc1nn(C)c2nc(Nc3ccc4c(c3)CN(C[C@@H]3[C@H]5CN(c6ccc7c(c6)C(=O)N(C6CCC(=O)NC6=O)C7=O)C[C@@H]35)CC4)ncc12 (stereo partly drawn) [Compound 148, 5-((1R,5S,6S)-6-((7-((3-((2,6-Dimethylphenyl)amino)-1-methyl-1H-pyrazolo[3,4-d]pyrimidin-6-yl)amino)-3,4-dihydroisoquinolin-2 (1H)-yl)methyl)-3-azabicyclo[3.1.0]hexan-3-yl)-2-(2,6-dioxopiperidin-3-yl)isoindoline-1,3-dione] | 0.1 to 10 nM
Cc1cccc(C)c1Nc1nn(C)c2nc(Nc3ccc4c(c3)CN(C3CN(C[C@H]5CCN(c6ccc7c(c6)C(=O)N(C6CCC(=O)NC6=O)C7=O)C5)C3)CC4)ncc12 (stereo partly drawn) [Compound 150, 5-((R)-3-((3-(7-((3-((2,6-Dimethylphenyl)amino)-1-methyl-1H-pyrazolo[3,4-d]pyrimidin-6-yl)amino)-3,4-dihydroisoquinolin-2 (1H)-yl)azetidin-1-yl)methyl)pyrrolidin-1-yl)-2-(2,6-dioxopiperidin-3-yl)isoindoline-1,3-dione] | 0.1 to 10 nM
Cc1cccc(C)c1Nc1nn(C)c2nc(Nc3ccc4c(c3)CN(C3CN(C[C@@H]5CCN(c6ccc7c(c6)C(=O)N(C6CCC(=O)NC6=O)C7=O)C5)C3)CC4)ncc12 (stereo partly drawn) [Compound 151, 5-((S)-3-((3-(7-((3-((2,6-Dimethylphenyl)amino)-1-methyl-1H-pyrazolo[3,4-d]pyrimidin-6-yl)amino)-3,4-dihydroisoquinolin-2 (1H)-yl)azetidin-1-yl)methyl)pyrrolidin-1-yl)-2-(2,6-dioxopiperidin-3-yl)isoindoline-1,3-dione] | 0.1 to 10 nM
Cc1cccc(C)c1Nc1nn(C)c2nc(Nc3ccc4c(c3)CN(C3CN(CC5CN(c6ccc7c(c6)C(=O)N(C6CCC(=O)NC6=O)C7=O)C5)C3)CC4)ncc12 (stereo not shown) [Compound 152, 5-(3-((3-(7-((3-((2,6-Dimethylphenyl)amino)-1-methyl-TH-pyrazolo[3,4-d]pyrimidin-6-yl)amino)-3,4-dihydroisoquinolin-2 (1H)-yl)azetidin-1-yl)methyl)azetidin-1-yl)-2-(2,6-dioxopiperidin-3-yl)isoindoline-1,3-dione] | 0.1 to 10 nM
Cc1cccc(C)c1Nc1nn(C)c2nc(Nc3ccc4c(c3)CN(C3CN(C[C@@H]5[C@H]6CN(c7ccc8c(c7)C(=O)N(C7CCC(=O)NC7=O)C8=O)C[C@@H]56)C3)CC4)ncc12 (stereo partly drawn) [Compound 153, 5-((1R,5S,6S)-6-((3-(7-((3-((2,6-Dimethylphenyl)amino)-1-methyl-1H-pyrazolo[3,4-d]pyrimidin-6-yl)amino)-3,4-dihydroisoquinolin-2 (1H)-yl)azetidin-1-yl)methyl)-3-azabicyclo[3.1.0]hexan-3-yl)-2-(2,6-dioxopiperidin-3-yl)isoindoline-1,3-dione] | 0.1 to 10 nM
